# Assays:
# [1] = Chiral stability under long-term and accelerated storage conditions; type: physicochemical; details: for colour and chirality after storage: −20° C., 5° C., 25° C./60% RH 3 months, 40° C./75% RH 1 month
# Experimental: Isomer stability under long-term and accelerated conditions was studied.
# Compound A and isomers A-P1 and A-P2 were investigated for traits and isomeric stability at −20±5° C., 5° C.±3° C., 25° C.±2° C. (60%±5% RH) and 40° C.±2° C.
# [2] = tested on: human lung cancer NCI-H460 cells; experiment: In vivo pharmacodynamics, NCI-H460 subcutaneous xenograft model; design: species or system BALB/c nude mice; details: for Tumor volume: 100 mg/kg i.p.
# [3] = tested on: HuPrime model PA1222 human pancreatic cancer; experiment: In vivo pharmacodynamics, pancreatic cancer PA1222 PDX model; details: for Tumor volume: 120 mg/kg i.p.
# Experimental: The test was divided into groups of test drug Gemcitabine 120 mg/kg group, test drug Compound A 10 mg/kg and 7.5% anhydrous ethanol+7.5% polyoxyethylene (35) castor oil+85% glucose injection DSW (pH 7.4) vehicle control group, a total of 3 groups, with 5 mice per group. […] Test drug Gemcitabine (Gemcitabine) 120 mg/kg group was administered intraperitoneally, once a week for three consecutive weeks.
# [4] = tested on: human lung cancer NCI-H460-Luc2 cells (intracranial); experiment: In vivo pharmacodynamics, NCI-H460-Luc2 intracranial inoculation CDX model; design: species or system BALB/c nude mice; details: 20 mg/kg, i.p. QWx3; Day 11
# Experimental: The experiment was divided into groups of test drug Paclitaxel 20 mg/kg group, Compound A 2 mg/kg, 4 mg/kg and 8 mg/kg groups and 10% ethanol+10% polyoxyethylene castor oil+80% glucose injection DSW (pH 7.42) vehicle control group (Vehicle group), with 6 mice per group. […] The positive drug Paclitaxel 20 mg/kg group was administered by intraperitoneal injection and administered once a week for 3 weeks.
# The pharmacodynamic analysis of each group in the human NCI-H460-luc intracranial inoculation model was performed based on the measured bioluminescence values on day 11 after administration, and the results were shown in Table 14.
# [5] = tested on: HuPrime model LU2505 human lung cancer; experiment: In vivo pharmacodynamics, lung cancer LU2505 PDX model; design: species or system BALB/c nude mice; details: for Tumor volume: 20 mg/kg i.p.
# [6] = tested on: HuPrime model LU0884 human lung cancer; experiment: In vivo pharmacodynamics, lung cancer LU0884 PDX model; design: species or system BALB/c nude mice; details: for Size of tumor volume: Group 2, Paclitaxel 20 mg/kg
# P-gp = target: T1, P-gp (Homo sapiens, UniProt P08183); experiment: P-gp substrate evaluation, MDCKII-MDR1 penetration test with or without Verapamil; type: in vitro ADME; details: Verapamil 0 μM
# T1 construct: expressed in transfected cells; host or cells: MDCKII-MDR1 cells
# Experimental: The conditions of the incubator were set as 37° C., 5% CO2, and 95% of the relative humidity.
# After that, the MDCKII-MDR1 cells can be used for the penetration test.
# (1) MDCKII-MDR1 transwell culture plate was taken out from the incubator.
# (6) The upper and lower transportations were pooled and then incubated at 37° C. for 2 h.
# After the sample tubes were vortexed for 10 min, and centrifuged at 3220 g for 30 min. […] Each sample was adopted to the three parallel incubation.
# Efflux Ratio was calculated by the following formula: […]
# Recovery was calculated by the following formula: […]
# [7] = 25° C. ± 2° C./60% ± 5% RH, 1 month
# [8] = 25° C. ± 2° C./60% ± 5% RH, 3 months
# [9] = 40° C. ± 2° C./75% ± 5% RH, 1 month
# [10] = 20 mg/kg i.p. every four days x4, Day 28
# [11] = Paclitaxel 20 mg/kg, Q4Dx4, i.p., Day 28
# T1 sequence (P08183 whole entry): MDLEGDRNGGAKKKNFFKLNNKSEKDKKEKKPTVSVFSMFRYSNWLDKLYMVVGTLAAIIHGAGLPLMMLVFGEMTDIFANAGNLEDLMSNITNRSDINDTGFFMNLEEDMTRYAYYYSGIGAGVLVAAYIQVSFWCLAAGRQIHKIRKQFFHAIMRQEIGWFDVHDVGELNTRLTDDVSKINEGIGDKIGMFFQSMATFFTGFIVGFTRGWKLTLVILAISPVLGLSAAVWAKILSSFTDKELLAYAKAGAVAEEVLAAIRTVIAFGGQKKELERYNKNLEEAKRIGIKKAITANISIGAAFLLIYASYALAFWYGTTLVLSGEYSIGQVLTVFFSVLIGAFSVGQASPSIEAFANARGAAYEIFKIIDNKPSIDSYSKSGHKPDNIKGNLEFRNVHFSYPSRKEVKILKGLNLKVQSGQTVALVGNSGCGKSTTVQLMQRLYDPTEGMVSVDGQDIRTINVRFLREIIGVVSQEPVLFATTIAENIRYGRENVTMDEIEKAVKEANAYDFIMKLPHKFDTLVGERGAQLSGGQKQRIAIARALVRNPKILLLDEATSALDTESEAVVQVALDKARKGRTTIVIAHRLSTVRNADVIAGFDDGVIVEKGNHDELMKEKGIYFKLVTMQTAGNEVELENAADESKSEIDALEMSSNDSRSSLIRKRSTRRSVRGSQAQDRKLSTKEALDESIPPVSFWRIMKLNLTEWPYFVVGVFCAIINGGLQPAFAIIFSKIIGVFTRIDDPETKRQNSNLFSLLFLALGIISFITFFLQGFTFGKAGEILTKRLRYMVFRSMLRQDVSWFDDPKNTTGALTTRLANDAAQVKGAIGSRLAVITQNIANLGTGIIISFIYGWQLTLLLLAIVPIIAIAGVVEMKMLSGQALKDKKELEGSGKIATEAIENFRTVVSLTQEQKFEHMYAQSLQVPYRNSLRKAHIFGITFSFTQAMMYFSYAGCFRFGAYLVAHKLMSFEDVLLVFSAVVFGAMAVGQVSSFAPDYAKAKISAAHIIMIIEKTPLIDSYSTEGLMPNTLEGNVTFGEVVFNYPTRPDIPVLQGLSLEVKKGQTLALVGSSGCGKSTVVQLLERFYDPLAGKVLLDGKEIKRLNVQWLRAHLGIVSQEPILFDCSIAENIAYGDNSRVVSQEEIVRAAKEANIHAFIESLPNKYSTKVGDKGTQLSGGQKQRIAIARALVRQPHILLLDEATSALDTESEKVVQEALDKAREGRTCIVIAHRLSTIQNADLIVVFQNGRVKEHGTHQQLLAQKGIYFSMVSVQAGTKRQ
smiles,measurement,setting,value
"O=[N+]([O-])c1ccc(C(OP(=O)(N2CC2)N2CC2)C(F)(F)F)cc1Oc1ccc(-c2ccc(F)cc2)c(F)c1 (single isomer, unassigned) [A-P1]",Isomer peak A-P1,[1]; 0 month,99.92%
same,Isomer peak A-P2,[1]; 0 month,0.08%
same,Isomer peak A-P1,"[1]; 5° C. ± 3° C., 1 month",99.92%
same,Isomer peak A-P2,"[1]; 5° C. ± 3° C., 1 month",0.08%
same,Isomer transformation,"[1]; 5° C. ± 3° C., 1 month",0.00%
same,Isomer peak A-P1,"[1]; 5° C. ± 3° C., 3 months",99.92%
same,Isomer peak A-P2,"[1]; 5° C. ± 3° C., 3 months",0.08%
same,Isomer transformation,"[1]; 5° C. ± 3° C., 3 months",0.00%
same,Isomer peak A-P1,[1]; [7],99.92%
same,Isomer peak A-P2,[1]; [7],0.08%
same,Isomer transformation,[1]; [7],0.00%
same,Isomer peak A-P1,[1]; [8],99.92%
same,Isomer peak A-P2,[1]; [8],0.08%
same,Isomer transformation,[1]; [8],0.00%
same,Isomer peak A-P1,[1]; [9],99.91%
same,Isomer peak A-P2,[1]; [9],0.09%
same,Isomer transformation,[1]; [9],0.01%
same,colour and chirality after storage,[1],essentially no change
same,Isomer peak A-P1,"[1]; −20 ± 5° C., 3 months",99.92%
same,Isomer peak A-P2,"[1]; −20 ± 5° C., 3 months",0.08%
same,Isomer transformation,"[1]; −20 ± 5° C., 3 months",0.00%
"O=[N+]([O-])c1ccc(C(OP(=O)(N2CC2)N2CC2)C(F)(F)F)cc1Oc1ccc(-c2ccc(F)cc2)c(F)c1 (single isomer, unassigned) [A-P2]",Isomer peak A-P1,[1]; 0 month,0.25%
same,Isomer peak A-P2,[1]; 0 month,99.75%
same,Isomer peak A-P1,"[1]; 5° C. ± 3° C., 1 month",0.25%
same,Isomer peak A-P2,"[1]; 5° C. ± 3° C., 1 month",99.75%
same,Isomer transformation,"[1]; 5° C. ± 3° C., 1 month",0.00%
same,Isomer peak A-P1,"[1]; 5° C. ± 3° C., 3 months",0.25%
same,Isomer peak A-P2,"[1]; 5° C. ± 3° C., 3 months",99.75%
same,Isomer transformation,"[1]; 5° C. ± 3° C., 3 months",0.00%
same,Isomer peak A-P1,[1]; [7],0.25%
same,Isomer peak A-P2,[1]; [7],99.75%
same,Isomer transformation,[1]; [7],0.00%
same,Isomer peak A-P1,[1]; [8],0.25%
same,Isomer peak A-P2,[1]; [8],99.75%
same,Isomer transformation,[1]; [8],0.00%
same,Isomer peak A-P1,[1]; [9],0.26%
same,Isomer peak A-P2,[1]; [9],99.74%
same,Isomer transformation,[1]; [9],0.01%
same,colour and chirality after storage,[1],essentially no change
same,Isomer peak A-P1,"[1]; −20 ± 5° C., 3 months",0.26%
same,Isomer peak A-P2,"[1]; −20 ± 5° C., 3 months",99.74%
same,Isomer transformation,"[1]; −20 ± 5° C., 3 months",−0.01%
"N.N.O=C([O-])C1(C(=O)[O-])CCC1.[Pt+2] [Carboplatin, reference compound]",Tumor volume,[2]; Day 7,145.46 mm^3
same,Tumor volume,[2]; Day 10,262.15 mm^3
same,Tumor volume,[2]; Day 14,409.97 mm^3
same,Tumor volume,[2]; Day 17,529.44 mm^3
same,Tumor volume,[2]; Day 21,761.56 mm^3
same,Tumor volume,[2]; Day 24,960.42 mm^3
same,Tumor volume,[2]; Day 28,1073.28 mm^3
same,Tumor volume,[2]; Day 31,1230.93 mm^3
same,Tumor volume,[2]; Day 35,1577.99 mm^3
same,Relative tumor volume (x ± S),"[2]; 100 mg/kg, QWx3, i.p., Day 31",8.58 ± 1.16
same,T/C (%),"[2]; 100 mg/kg, QWx3, i.p., Day 31",64.81%
same,TGI (%),"[2]; 100 mg/kg, QWx3, i.p., Day 31",35.19%
same,Tumor volume (x ± S),"[2]; 100 mg/kg, QWx3, i.p., Day 31, in mm³ (unit assumed)",1230.93 ± 258.17
"Nc1ccn([C@@H]2O[C@H](CO)[C@@H](O)C2(F)F)c(=O)n1 [Gemcitabine, reference compound]",Tumor volume,[3]; Day 0,111.91 mm^3
same,Tumor volume,[3]; Day 3,136.17 mm^3
same,Tumor volume,[3]; Day 7,153.75 mm^3
same,Tumor volume,[3]; Day 10,157.55 mm^3
same,Tumor volume,[3]; Day 14,147.44 mm^3
same,Tumor volume,[3]; Day 17,136.71 mm^3
same,Tumor volume,[3]; Day 21,138.01 mm^3
same,Tumor volume,[3]; Day 24,153.69 mm^3
same,Tumor volume,[3]; Day 28,166.11 mm^3
same,Relative tumor volume (x ± S),"[3]; 120 mg/kg, QWx3, i.p., Day 28",1.49 ± 0.19
same,T/C (%),"[3]; 120 mg/kg, QWx3, i.p., Day 28",42.83%
same,TGI (%),"[3]; 120 mg/kg, QWx3, i.p., Day 28",57.17%
same,Tumor volume (x ± S),"[3]; 120 mg/kg, QWx3, i.p., Day 28",166.11 ± 24.40
"CC(=O)O[C@H]1C(=O)[C@@]2(C)[C@H]([C@H](OC(=O)c3ccccc3)[C@]3(O)C[C@H](OC(=O)[C@H](O)[C@@H](NC(=O)c4ccccc4)c4ccccc4)C(C)=C1C3(C)C)[C@]1(OC(C)=O)CO[C@@H]1C[C@@H]2O [Paclitaxel, reference compound]",Bioluminescence Value (Day 11),[4],4184.52 ± 1679.77 ×10^5 photon/second
same,T/C (%),[4],130.82%
same,TGI (%),[4],−62.45%
same,Relative tumor volume (x ± S),[5]; [10],2.29 ± 1.37
same,T/C (%),[5]; [10],21.40%
same,TGI (%),[5]; [10],78.60%
same,Tumor volume (x ± S),"[5]; 20 mg/kg i.p. every four days x4, Day 28, in mm³ (unit assumed)",250.47 ± 157.81
same,Tumor volume,[5]; Day 0,103.12 mm^3
same,Tumor volume,[5]; Day 4,133.63 mm^3
same,Tumor volume,[5]; Day 7,133.14 mm^3
same,Tumor volume,[5]; Day 11,132.14 mm^3
same,Tumor volume,[5]; Day 14,164.42 mm^3
same,Tumor volume,[5]; Day 18,207.89 mm^3
same,Tumor volume,[5]; Day 21,238.63 mm^3
same,Tumor volume,[5]; Day 25,231.63 mm^3
same,Tumor volume,[5]; Day 28,250.47 mm^3
same,Size of tumor volume,[6]; Day 0,110.11 mm^3
same,Size of tumor volume,[6]; Day 4,157.57 mm^3
same,Size of tumor volume,[6]; Day 7,229.87 mm^3
same,Size of tumor volume,[6]; Day 11,250.46 mm^3
same,Size of tumor volume,[6]; Day 14,292.52 mm^3
same,Size of tumor volume,[6]; Day 18,381.53 mm^3
same,Size of tumor volume,[6]; Day 21,402.62 mm^3
same,Size of tumor volume,[6]; Day 25,492.50 mm^3
same,Size of tumor volume,[6]; Day 28,528.88 mm^3
same,T/C (%),[6]; [11],78.79%
same,TGI (%),[6]; [11],21.21%
same,Relative tumor volume (x ± S),"[6]; Paclitaxel 20 mg/kg, Q4Dx4, i.p., Day 28, mean ± standard error",4.72 ± 1.26
same,Tumor volume (x ± S),"[6]; Paclitaxel 20 mg/kg, Q4Dx4, i.p., Day 28, mean ± standard error, in mm³ (unit assumed)",528.88 ± 147.69
same,tumor inhibitory effect,"[6]; Paclitaxel 20 mg/kg, Compound A 2.5, 5, 10 mg/kg",weak tumor inhibitory effect
COc1cc2nc(N3CCN(C(=O)c4ccco4)CC3)nc(N)c2cc1OC [Prazosin],Efflux Ratio,P-gp,2.90

# Reference: patent US20260159536A1, “AKR1C3-ACTIVATED DNA ALKYLATING AGENT, AND MEDICAL APPLICATION THEREOF” (ASCENTAWITS PHARMACEUTICALS, LTD., priority 2021, published 2026)
